The source made the active and inactive calls.
Tests used:
[1] = test system: HEK293; assay: Cytotoxicity against human HEK293 cells measured after 48 hrs; type: toxicity, cell-based; conditions: hek293, 48 h
[2] = test system: Schistosoma mansoni; assay: Antischistosomal activity against adult stage of Schistosoma mansoni assessed as degenerative and lethal changes at 5 uM measured after 48 hrs; type: functional, organism-based
[3] = test system: Schistosoma mansoni; assay: Antischistosomal activity against adult stage of Schistosoma mansoni assessed as degenerative and lethal changes at 5 uM measured after 24 hrs; type: functional, organism-based
[4] = test system: Schistosoma mansoni; assay: Antischistosomal activity against adult stage of Schistosoma mansoni assessed as uncoordinated and slowed motility at 5 uM measured after 5 hrs; type: functional, organism-based
[5] = test system: Schistosoma mansoni; assay: Antischistosomal activity against adult stage of Schistosoma mansoni assessed as uncoordinated and slowed motility at 5 uM measured after 48 hrs; type: functional, organism-based
[6] = test system: Schistosoma mansoni; assay: Antischistosomal activity against adult stage of Schistosoma mansoni assessed as uncoordinated and slowed motility at 5 uM measured after 24 hrs; type: functional, organism-based
[7] = test system: Schistosoma mansoni; assay: Antischistosomal activity against adult stage of Schistosoma mansoni assessed as degenerative and lethal changes at 5 uM measured after 5 hrs; type: functional, organism-based
[8] = test system: Schistosoma mansoni; assay: Antischistosomal activity against adult stage of Schistosoma mansoni assessed as reduction in worm motility measured after 24 hrs; type: functional, organism-based
[9] = Selectivity index, ratio of CC50 for human HEK293 cells to EC50 for antischistosomal activity against adult stage of Schistosoma mansoni; type: toxicity; conditions: read-out: Ratio CC50/EC50
[10] = test system: Schistosoma mansoni; assay: Antischistosomal activity against adult stage of Schistosoma mansoni assessed as uncoordinated and slowed motility at 5 uM measured after 1 hr; type: functional, organism-based
[11] = test system: Schistosoma mansoni; assay: Antischistosomal activity against adult stage of Schistosoma mansoni assessed as degenerative and lethal changes at 5 uM measured after 1 hr; type: functional, organism-based

O=C(Nc1cccc(C(F)(F)F)c1)c1ccc(F)cc1
inactive: Activity [2] | Activity [3] | Activity [4] | Activity [5] | Activity [6] | Activity [7]
> 20 µM: CC50 [1]

O=C(Nc1ccc(F)c(F)c1)c1ccc(C(F)(F)F)cc1
14.6 µM: CC50 [1]
3.84: selectivity ratio [9]
active: Activity [2] | Activity [4] | Activity [6] | Activity [10]
3.8 µM: EC50 [8]

O=C(Nc1ccccc1)c1ccc(C(F)(F)F)cc1
inactive: Activity [2] | Activity [3] | Activity [4] | Activity [5] | Activity [11] | Activity [6] | Activity [7] | Activity [10]
> 20 µM: CC50 [1]

Cc1ccc(NC(=O)c2ccc(F)cc2)cc1C
inactive: Activity [2] | Activity [3] | Activity [4] | Activity [5] | Activity [11] | Activity [6] | Activity [7] | Activity [10]
> 20 µM: CC50 [1]

O=C(Nc1ccc(Cl)c(Cl)c1)c1ccc(F)cc1
active: Activity [4] | Activity [5] | Activity [6] | Activity [10]
> 20 µM: CC50 [1]

O=C(Nc1ccc(Cl)c(Cl)c1)c1ccccc1
active: Activity [4] | Activity [5] | Activity [6] | Activity [10]
> 20 µM: CC50 [1]

O=C(Nc1cccc(C(F)(F)F)c1)c1ccccc1
inactive: Activity [2] | Activity [3] | Activity [5] | Activity [6]
> 20 µM: CC50 [1]

O=C(Nc1cccc(C(F)(F)F)c1)c1ccc(C(F)(F)F)cc1
10.1: selectivity ratio [9]
1.1 µM: EC50 [8]
active: Activity [2] | Activity [3] | Activity [11] | Activity [7]

O=C(Nc1ccc(C(F)(F)F)cc1)c1ccc(C(F)(F)F)cc1
> 16: selectivity ratio [9]
1.25 µM: EC50 [8]
> 20 µM: CC50 [1]
active: Activity [2] | Activity [6]

O=C(Nc1ccc(F)c(F)c1)c1ccc(F)cc1
inactive: Activity [2] | Activity [3] | Activity [5] | Activity [6]
> 20 µM: CC50 [1]

O=C(Nc1ccc(F)c(F)c1)c1ccccc1
inactive: Activity [2] | Activity [3] | Activity [4] | Activity [5] | Activity [11] | Activity [6] | Activity [7] | Activity [10]
> 20 µM: CC50 [1]

N#Cc1ccc(C(=O)Nc2ccccc2)cc1
> 20 µM: CC50 [1]
inactive: Activity [2] | Activity [3] | Activity [4] | Activity [5] | Activity [11] | Activity [6] | Activity [7] | Activity [10]

COc1ccc(NC(=O)c2ccccc2)cc1OC
inactive: Activity [2] | Activity [3] | Activity [4] | Activity [5] | Activity [11] | Activity [6] | Activity [7] | Activity [10]
> 20 µM: CC50 [1]

COc1ccc(NC(=O)c2ccc(C#N)cc2)cc1OC
> 20 µM: CC50 [1]
inactive: Activity [2] | Activity [3] | Activity [4] | Activity [5] | Activity [11] | Activity [6] | Activity [7] | Activity [10]

O=C(Nc1ccc(Cl)nn1)c1cccc(F)c1
inactive: Activity [2] | Activity [3] | Activity [4] | Activity [5] | Activity [11] | Activity [6] | Activity [7] | Activity [10]
> 20 µM: CC50 [1]

COc1ccc(NC(=O)c2ccc(C(F)(F)F)cc2)cc1OC
> 20 µM: CC50 [1]
inactive: Activity [2] | Activity [3] | Activity [4] | Activity [5] | Activity [11] | Activity [6] | Activity [7] | Activity [10]

O=C(Nc1ccc(Cl)c(Cl)c1)c1ccc(C(F)(F)F)cc1
0.08 µM: EC50 [8]
123: selectivity ratio [9]
active: Activity [2] | Activity [3] | Activity [11] | Activity [7]

Cc1ccc(NC(=O)c2ccc(C(F)(F)F)cc2)cc1C
> 20 µM: CC50 [1]
> 5.4: selectivity ratio [9]
active: Activity [2] | Activity [3] | Activity [4] | Activity [10]
3.7 µM: EC50 [8]

Cc1ccc(NC(=O)c2ccccc2)cc1C
inactive: Activity [2] | Activity [3] | Activity [4] | Activity [5] | Activity [11] | Activity [6] | Activity [7] | Activity [10]
> 20 µM: CC50 [1]

N#Cc1ccc(C(=O)Nc2cccc(C(F)(F)F)c2)cc1
inactive: Activity [2] | Activity [3] | Activity [4] | Activity [5] | Activity [11] | Activity [6] | Activity [7] | Activity [10]
> 20 µM: CC50 [1]

N#Cc1ccc(C(=O)Nc2ccc(F)c(F)c2)cc1
> 20 µM: CC50 [1]
inactive: Activity [2] | Activity [3] | Activity [4] | Activity [5] | Activity [11] | Activity [6] | Activity [7] | Activity [10]

O=C(Nc1ccccc1)c1ccc(F)cc1
> 20 µM: CC50 [1]
inactive: Activity [2] | Activity [3] | Activity [4] | Activity [5] | Activity [11] | Activity [6] | Activity [7] | Activity [10]

COc1ccc(NC(=O)c2ccc(F)cc2)cc1OC
> 20 µM: CC50 [1]
inactive: Activity [2] | Activity [3] | Activity [4] | Activity [5] | Activity [6] | Activity [7]

Cc1ccc(NC(=O)c2ccc(C#N)cc2)cc1C
> 20 µM: CC50 [1]
inactive: Activity [2] | Activity [3] | Activity [4] | Activity [5] | Activity [11] | Activity [6] | Activity [7] | Activity [10]

COc1ccc(NC(=O)c2cc(Cl)ccc2O)cc1OC
> 20 µM: CC50 [1]
inactive: Activity [11] | Activity [10]
